Experimental data: ChEMBL document CHEMBL1201862, “PubChem BioAssay data set” (2004)
Active and inactive are the calls of the source.

Key:
Phospholipase D2 = Phospholipase D2 (Homo sapiens, UniProt O14939); experiment: cellular phospholipase D2 inhibition IC50 – cell-based, dose response (AID 602147); format: functional;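 also: cellular assay in HEK293 cells overexpressing GFP-tagged PLD2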
Phospholipase D1 = Phospholipase D1 (Homo sapiens, UniProt Q13393); experiment: cellular phospholipase D1 inhibition IC50 – cell-based, dose response (AID 602151); format: functional;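 also: cellular PLD1 assay in Calu-1 cells stimulated with PMA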
Phospholipase D1, sequence (Q13393 whole entry): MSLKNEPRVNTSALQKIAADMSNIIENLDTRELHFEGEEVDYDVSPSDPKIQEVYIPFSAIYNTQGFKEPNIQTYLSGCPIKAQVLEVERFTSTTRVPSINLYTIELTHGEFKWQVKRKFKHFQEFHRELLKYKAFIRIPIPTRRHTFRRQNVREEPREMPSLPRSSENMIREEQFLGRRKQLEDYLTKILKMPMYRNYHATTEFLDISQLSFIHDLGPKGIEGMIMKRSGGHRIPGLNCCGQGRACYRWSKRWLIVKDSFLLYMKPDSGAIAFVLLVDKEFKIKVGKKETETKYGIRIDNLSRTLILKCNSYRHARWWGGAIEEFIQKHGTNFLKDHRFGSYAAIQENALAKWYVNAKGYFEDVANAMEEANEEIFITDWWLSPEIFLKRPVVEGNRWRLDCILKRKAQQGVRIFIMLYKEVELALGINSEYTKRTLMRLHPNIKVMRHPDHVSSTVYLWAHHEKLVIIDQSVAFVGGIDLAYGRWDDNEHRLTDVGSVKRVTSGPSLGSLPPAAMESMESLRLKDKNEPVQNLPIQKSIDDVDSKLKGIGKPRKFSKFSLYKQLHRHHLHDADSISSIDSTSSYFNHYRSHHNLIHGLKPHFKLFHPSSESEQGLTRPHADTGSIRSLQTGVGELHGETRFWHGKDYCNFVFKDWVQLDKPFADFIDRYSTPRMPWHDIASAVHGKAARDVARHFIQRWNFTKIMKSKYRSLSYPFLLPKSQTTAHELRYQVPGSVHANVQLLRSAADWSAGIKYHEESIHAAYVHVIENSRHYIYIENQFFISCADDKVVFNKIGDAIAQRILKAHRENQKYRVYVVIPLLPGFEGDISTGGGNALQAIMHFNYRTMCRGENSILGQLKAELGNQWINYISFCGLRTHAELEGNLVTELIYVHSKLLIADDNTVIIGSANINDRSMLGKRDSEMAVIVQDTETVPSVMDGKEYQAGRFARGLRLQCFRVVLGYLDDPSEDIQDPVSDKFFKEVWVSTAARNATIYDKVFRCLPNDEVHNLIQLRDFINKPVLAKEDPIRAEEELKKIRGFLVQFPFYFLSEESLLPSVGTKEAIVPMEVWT

Caspase-3 [1] = biological target: T1, Caspase-3 (Homo sapiens, UniProt P42574); experiment: inhibition of recombinant caspase-3 activity – biochemical, luminescence, set 2, selectivity assay for SENP protease inhibitor project, SAR follow-up (AID 588599); format: functional
T1 sequence (P42574 whole entry): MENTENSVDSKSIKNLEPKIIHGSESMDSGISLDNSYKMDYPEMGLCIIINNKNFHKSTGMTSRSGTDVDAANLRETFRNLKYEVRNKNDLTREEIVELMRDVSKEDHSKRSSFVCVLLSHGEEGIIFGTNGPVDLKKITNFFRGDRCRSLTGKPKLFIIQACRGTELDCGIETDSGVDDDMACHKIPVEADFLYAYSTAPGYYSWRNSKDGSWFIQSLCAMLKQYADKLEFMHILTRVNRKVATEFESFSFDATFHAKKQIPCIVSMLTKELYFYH

[2] = biological target: T2, Sentrin-specific protease 6 (Homo sapiens, UniProt Q9GZR1); experiment: inhibition of human SENP6 catalytic domain – biochemical, luminescence, set 2, SAR follow-up (AID 588598); format: functional
T2 sequence (Q9GZR1 whole entry): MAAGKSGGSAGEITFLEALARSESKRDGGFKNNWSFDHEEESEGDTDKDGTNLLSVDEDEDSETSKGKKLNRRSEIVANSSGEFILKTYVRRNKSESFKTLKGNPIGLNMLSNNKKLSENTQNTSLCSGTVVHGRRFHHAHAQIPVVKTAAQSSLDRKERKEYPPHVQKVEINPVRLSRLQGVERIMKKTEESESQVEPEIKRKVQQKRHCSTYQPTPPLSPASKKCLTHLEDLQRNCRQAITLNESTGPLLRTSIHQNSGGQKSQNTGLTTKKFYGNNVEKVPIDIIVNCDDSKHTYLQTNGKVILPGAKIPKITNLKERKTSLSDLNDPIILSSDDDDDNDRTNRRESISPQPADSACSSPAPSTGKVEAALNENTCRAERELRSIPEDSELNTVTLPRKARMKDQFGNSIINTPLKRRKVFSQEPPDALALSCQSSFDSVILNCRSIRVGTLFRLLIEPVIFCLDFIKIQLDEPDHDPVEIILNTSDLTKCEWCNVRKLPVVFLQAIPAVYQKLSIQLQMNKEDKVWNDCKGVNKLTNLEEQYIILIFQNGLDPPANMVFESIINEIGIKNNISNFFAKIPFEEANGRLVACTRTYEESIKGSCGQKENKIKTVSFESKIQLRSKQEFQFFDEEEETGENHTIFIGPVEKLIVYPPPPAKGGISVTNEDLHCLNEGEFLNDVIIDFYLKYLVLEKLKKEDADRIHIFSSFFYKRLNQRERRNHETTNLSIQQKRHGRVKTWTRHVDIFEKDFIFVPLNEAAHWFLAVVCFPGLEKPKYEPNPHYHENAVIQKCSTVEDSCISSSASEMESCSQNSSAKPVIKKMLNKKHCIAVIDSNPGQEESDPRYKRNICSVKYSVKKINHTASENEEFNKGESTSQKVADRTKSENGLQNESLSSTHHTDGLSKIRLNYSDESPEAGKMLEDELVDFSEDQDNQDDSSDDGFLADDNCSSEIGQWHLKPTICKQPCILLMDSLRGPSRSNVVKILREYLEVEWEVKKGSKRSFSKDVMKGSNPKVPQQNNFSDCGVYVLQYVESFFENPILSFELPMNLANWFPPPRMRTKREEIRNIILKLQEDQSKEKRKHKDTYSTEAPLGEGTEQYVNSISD

Caspase-3 [3] = biological target: T1, Caspase-3; experiment: SAR Analysis of small molecule inhibitors of Sentrin-specific proteases (SENPs) using a Caspase-3 Selectivity assay. [Related pubchem assays (depositor defined):AID2540, AID2599, AID434973, AID489001]; format: functional
[4] = biological target: T3, Sentrin-specific protease 7 (Homo sapiens, UniProt Q9BQF6); experiment: inhibition of human SENP7 cleavage activity – biochemical, luminescence, SAR follow-up (AID 504497); format: functional
T3 sequence (Q9BQF6 whole entry): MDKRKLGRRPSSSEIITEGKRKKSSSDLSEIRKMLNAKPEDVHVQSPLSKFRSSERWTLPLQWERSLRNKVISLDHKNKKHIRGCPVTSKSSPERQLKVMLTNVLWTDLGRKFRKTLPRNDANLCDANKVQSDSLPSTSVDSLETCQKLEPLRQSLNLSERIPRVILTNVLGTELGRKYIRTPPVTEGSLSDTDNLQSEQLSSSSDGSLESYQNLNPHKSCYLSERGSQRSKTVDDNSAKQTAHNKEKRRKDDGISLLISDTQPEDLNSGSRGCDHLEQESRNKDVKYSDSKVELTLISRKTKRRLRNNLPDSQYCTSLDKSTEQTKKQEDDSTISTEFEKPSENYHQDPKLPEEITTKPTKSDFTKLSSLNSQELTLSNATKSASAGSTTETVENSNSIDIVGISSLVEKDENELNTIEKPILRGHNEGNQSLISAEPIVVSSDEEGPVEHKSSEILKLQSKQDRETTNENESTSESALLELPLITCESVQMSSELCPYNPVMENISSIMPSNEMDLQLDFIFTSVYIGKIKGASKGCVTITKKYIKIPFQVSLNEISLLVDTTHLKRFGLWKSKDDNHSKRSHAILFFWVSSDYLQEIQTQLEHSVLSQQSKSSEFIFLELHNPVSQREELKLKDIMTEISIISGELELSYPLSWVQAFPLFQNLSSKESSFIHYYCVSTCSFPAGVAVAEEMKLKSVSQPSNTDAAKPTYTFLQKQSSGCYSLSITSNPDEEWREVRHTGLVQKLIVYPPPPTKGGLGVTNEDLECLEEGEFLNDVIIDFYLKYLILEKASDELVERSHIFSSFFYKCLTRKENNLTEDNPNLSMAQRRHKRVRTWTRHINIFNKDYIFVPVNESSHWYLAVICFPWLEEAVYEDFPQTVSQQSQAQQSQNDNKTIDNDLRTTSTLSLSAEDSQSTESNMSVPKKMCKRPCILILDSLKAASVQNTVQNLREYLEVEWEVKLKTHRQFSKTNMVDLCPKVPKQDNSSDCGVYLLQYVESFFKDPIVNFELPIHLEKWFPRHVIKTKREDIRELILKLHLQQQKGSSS

[5] = biological target: T2, Sentrin-specific protease 6; experiment: SAR Analysis of small molecule inhibitors of Sentrin-specific protease 6 (SENP6) using a Luminescent assay. [Related pubchem assays (depositor defined):AID2582, AID2599]; format: functional
[6] = biological target: T3, Sentrin-specific protease 7; experiment: inhibition of human SENP7 cleavage activity – biochemical, luminescence, set 2, SAR follow-up (AID 588600); format: functional
[7] = biological target: T4, Sentrin-specific protease 8 (Homo sapiens, UniProt Q96LD8); experiment: inhibition of human SENP8 cleavage activity – biochemical, luminescence, SAR follow-up (AID 504501); format: functional
T4 sequence (Q96LD8 whole entry): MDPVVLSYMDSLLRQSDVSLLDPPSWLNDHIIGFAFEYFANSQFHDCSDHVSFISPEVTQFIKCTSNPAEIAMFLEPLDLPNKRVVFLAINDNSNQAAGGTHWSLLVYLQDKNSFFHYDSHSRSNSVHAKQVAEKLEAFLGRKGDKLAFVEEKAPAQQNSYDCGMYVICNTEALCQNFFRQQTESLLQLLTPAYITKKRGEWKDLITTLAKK

[8] = biological target: T4, Sentrin-specific protease 8; experiment: inhibition of sentrin protease 8 – biochemical, luminescence, set 2, SAR follow-up (AID 588601); format: functional
Cysteine protease ATG4B = Cysteine protease ATG4B (Homo sapiens, UniProt Q9Y4P1); format: functional;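 also: Fluorescence-based dose-response confirmation assay measuring inhibition of ATG4B activity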
Cysteine protease ATG4B, sequence (Q9Y4P1 whole entry): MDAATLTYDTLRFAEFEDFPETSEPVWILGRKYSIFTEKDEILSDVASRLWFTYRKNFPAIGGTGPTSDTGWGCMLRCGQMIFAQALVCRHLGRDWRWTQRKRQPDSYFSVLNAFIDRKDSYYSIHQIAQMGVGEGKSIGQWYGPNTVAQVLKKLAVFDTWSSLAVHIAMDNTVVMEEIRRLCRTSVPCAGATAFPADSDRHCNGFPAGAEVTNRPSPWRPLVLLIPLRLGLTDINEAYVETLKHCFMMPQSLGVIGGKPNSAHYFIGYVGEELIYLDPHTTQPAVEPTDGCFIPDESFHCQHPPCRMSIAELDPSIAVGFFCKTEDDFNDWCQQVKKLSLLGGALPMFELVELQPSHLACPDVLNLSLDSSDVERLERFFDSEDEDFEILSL

Phospholipase A2 = Phospholipase A2 (Homo sapiens, UniProt P04054); format: functional;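 also: confirmatory dose-response counterscreen on phospholipase A2, testing hits that came from an ultra-high-throughput screen for ATG4B inhibitors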
Phospholipase A2, sequence (P04054 whole entry): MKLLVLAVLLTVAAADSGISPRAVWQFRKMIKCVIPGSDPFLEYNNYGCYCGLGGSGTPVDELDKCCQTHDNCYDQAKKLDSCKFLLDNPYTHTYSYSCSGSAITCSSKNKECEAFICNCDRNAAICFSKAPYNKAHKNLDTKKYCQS

Beta Lactamase = Beta Lactamase (Pseudomonas aeruginosa, UniProt Q932Y6); experiment: BLA reporter interference, concentration series – BLA reporter cells, FRET fluorescence, artefact control for TLR9-MyD88 binding inhibitor project, dose response (AID 588341); format: cell-based;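 also: cell based assay in CHO-K1 cells stably expressing beta-lactamase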
Beta Lactamase, sequence (Q932Y6 whole entry): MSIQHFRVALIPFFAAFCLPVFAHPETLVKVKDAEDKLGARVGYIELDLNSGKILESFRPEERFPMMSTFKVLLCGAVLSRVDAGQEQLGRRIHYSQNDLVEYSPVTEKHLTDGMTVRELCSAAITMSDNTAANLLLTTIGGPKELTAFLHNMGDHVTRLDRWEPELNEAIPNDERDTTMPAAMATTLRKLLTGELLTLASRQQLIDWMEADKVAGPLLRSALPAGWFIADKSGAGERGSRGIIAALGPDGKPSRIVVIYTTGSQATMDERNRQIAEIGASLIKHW

[9] = reduction of Shn3 3'UTR-driven luciferase in osteoblasts – cell-based, Clone20 osteoblasts, firefly luciferase, cherry-picked, dose response (AID 624132); format: functional;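 also: firefly luciferase luminescence from reporter carrying the Shn3 3'UTR in osteoblasts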
[10] = non-specific 3'UTR reporter inhibition in Clone20-Shn3RL – cell-based, Renilla luciferase, cherry-picked, counter-screen for Shn3 inhibitor project, dose response (AID 624133); format: functional
CHO = CHO cell viability loss, potency – luminescence, cytotoxicity control for TLR9-MyD88 binding inhibitor project, dose response (AID 588339); format: functional, cell-based, hamster; details: Cricetulus griseus;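 also: CHO cells stably coexpressing TLR9 and MyD88 fusions from primary screen; compound exposure lasted 48 hours before viability readout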
[11] = loss of viability in HepG2 cells – cell-based, CellTiter-Glo, cherry-picked, cytotoxicity control for Shn3 inhibitor project, dose response (AID 624134); format: functional
[12] = fluconazole-exposed Candida albicans growth modulators – fluorescence, retest, confirmation (AID 2467); format: functional, cell-based
[13] = biological target: Serine/threonine-protein phosphatase (Candida dubliniensis (strain CD36 / CBS 7987 / NCPF 3949 / NRRLY-17841) (Yeast), UniProt B9W6M3); experiment: blockers of CaCl2-induced CDRE-lacZ signaling – S. cerevisiae, luminescence, secondary, dose response (AID 2388); format: functional, cell-based;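 also: yeast reporter cells carrying a calcineurin-responsive lacZ construct stimulated with calcium chloride; luminescent beta-galactosidase reporter signal in whole cells rather than isolated phosphatase activity; potency for inhibition where a drop in reporter signal means calcineurin blockade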
Serine/threonine-protein phosphatase, sequence (B9W6M3 whole entry): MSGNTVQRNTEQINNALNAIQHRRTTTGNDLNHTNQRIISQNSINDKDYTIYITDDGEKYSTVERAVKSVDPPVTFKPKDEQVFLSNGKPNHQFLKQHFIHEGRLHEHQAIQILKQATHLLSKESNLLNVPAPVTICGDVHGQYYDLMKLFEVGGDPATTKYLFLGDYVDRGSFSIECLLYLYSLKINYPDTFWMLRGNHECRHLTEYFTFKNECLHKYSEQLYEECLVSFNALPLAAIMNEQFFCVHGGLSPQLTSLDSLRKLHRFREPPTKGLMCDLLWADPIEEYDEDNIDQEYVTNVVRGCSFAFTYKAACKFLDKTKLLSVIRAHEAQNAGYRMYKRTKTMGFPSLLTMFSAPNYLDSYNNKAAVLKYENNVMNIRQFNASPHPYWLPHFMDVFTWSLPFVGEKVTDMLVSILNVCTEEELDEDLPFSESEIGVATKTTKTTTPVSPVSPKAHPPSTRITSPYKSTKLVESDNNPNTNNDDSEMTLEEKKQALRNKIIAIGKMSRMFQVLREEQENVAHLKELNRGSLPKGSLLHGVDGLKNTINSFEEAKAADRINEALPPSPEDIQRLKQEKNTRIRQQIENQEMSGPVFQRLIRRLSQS

[14] = biological target: ATP-dependent molecular chaperone HSP82 (Candida albicans (strain WO-1) (Yeast), UniProt C4YTQ8); experiment: steroid-induced GRE reporter decrease in yeast – S. cerevisiae, luminescence, Hsp90 inhibitor project, dose response (AID 2400); format: functional, cell-based;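 also: beta-galactosidase luminescence from glucocorticoid response element reporter as proxy for Hsp90 function; inhibitor potency where signal loss means Hsp90 inhibition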
ATP-dependent molecular chaperone HSP82, sequence (C4YTQ8 whole entry): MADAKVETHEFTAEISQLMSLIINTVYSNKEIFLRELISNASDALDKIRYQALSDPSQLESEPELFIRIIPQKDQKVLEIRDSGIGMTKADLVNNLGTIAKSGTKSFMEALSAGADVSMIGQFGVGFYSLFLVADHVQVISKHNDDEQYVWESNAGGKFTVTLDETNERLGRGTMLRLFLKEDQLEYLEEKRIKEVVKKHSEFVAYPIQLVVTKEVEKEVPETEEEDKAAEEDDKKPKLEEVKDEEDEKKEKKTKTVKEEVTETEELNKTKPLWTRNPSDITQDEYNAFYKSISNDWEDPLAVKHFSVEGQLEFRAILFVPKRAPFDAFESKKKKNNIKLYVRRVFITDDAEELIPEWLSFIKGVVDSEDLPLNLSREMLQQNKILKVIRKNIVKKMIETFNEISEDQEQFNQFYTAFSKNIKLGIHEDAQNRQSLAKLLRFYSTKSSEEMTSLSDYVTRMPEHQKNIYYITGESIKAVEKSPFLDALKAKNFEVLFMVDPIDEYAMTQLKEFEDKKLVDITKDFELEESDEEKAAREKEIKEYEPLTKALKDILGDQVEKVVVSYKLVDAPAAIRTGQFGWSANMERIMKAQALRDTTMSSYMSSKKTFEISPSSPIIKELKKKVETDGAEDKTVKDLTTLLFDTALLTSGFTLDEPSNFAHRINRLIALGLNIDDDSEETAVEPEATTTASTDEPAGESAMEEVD

[15] = biological target: T5, Rac GTPase-activating protein 1 (Homo sapiens, UniProt Q9H0H5); experiment: blockers of MgcRacGAP-driven Rac1 GTP hydrolysis – biochemical, ADP Hunter fluorescence, primary and confirmatory, confirmation (AID 624330); format: functional
T5 sequence (Q9H0H5 whole entry): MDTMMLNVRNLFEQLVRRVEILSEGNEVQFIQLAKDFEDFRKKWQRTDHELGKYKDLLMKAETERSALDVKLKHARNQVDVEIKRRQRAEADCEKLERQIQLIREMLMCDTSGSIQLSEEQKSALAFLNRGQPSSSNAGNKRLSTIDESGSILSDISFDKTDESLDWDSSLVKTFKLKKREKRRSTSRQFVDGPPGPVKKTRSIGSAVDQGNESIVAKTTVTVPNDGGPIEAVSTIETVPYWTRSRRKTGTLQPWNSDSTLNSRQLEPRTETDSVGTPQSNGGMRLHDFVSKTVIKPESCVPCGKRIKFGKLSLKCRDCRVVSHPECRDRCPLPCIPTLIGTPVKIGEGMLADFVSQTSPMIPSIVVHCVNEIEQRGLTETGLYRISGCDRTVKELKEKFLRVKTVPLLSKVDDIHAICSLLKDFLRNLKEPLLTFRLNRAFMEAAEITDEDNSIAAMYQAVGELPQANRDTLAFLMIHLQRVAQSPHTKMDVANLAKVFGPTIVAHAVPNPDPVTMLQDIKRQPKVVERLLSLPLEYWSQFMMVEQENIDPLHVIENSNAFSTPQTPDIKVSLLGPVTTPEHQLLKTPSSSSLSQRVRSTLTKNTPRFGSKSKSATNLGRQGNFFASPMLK

[16] = NIH-3T3 fibroblast cytotoxicity, dose response, cytotoxicity control, cell-based, fluorescence, Alamar Blue, secondary assay (AID 2327); format: functional;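 also: NIH-3T3 mouse fibroblasts cultured with fluconazole at 8 µg/mL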
[17] = biological target: T6, Endoribonuclease toxin MazF (Escherichia coli K-12, UniProt P0AE70); experiment: SAR analysis of small molecule activators of the MazEF TA System via a fluorescence-based single-stranded RNase assay counterscreen. [Related pubchem assays (depositor defined):AID504720, AID504743]; format: functional
T6 sequence (P0AE70 whole entry): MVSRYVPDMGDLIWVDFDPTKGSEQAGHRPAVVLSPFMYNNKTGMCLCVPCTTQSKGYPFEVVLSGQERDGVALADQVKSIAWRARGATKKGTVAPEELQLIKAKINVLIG

[18] = biological target: T6, Endoribonuclease toxin MazF; experiment: substrate-only fluorescence increase artefacts – biochemical, single-stranded RNase substrate, counter-screen for MazEF activator project, dose response (AID 588502); format: functional
[19] = biological target: T6, Endoribonuclease toxin MazF; experiment: activation of MazEF endoribonuclease cleavage – biochemical, fluorescence, single-stranded RNA substrate, uHTS hits, dose response (AID 588481); format: functional
[20] = biological target: T6, Endoribonuclease toxin MazF; experiment: MazEF toxin-antitoxin RNase activation – biochemical, fluorescence, single-stranded RNA substrate, SAR follow-up (AID 588603); format: functional
MEF = experiment: SAR analysis of small molecule cytotoxicity of MazEF TA System activators in embryonic fibroblast (MEF) cells. [Related pubchem assays (depositor defined):AID504720, AID504743]; format: functional; details: Mus musculus

Phospholipase D2, sequence (O14939 whole entry): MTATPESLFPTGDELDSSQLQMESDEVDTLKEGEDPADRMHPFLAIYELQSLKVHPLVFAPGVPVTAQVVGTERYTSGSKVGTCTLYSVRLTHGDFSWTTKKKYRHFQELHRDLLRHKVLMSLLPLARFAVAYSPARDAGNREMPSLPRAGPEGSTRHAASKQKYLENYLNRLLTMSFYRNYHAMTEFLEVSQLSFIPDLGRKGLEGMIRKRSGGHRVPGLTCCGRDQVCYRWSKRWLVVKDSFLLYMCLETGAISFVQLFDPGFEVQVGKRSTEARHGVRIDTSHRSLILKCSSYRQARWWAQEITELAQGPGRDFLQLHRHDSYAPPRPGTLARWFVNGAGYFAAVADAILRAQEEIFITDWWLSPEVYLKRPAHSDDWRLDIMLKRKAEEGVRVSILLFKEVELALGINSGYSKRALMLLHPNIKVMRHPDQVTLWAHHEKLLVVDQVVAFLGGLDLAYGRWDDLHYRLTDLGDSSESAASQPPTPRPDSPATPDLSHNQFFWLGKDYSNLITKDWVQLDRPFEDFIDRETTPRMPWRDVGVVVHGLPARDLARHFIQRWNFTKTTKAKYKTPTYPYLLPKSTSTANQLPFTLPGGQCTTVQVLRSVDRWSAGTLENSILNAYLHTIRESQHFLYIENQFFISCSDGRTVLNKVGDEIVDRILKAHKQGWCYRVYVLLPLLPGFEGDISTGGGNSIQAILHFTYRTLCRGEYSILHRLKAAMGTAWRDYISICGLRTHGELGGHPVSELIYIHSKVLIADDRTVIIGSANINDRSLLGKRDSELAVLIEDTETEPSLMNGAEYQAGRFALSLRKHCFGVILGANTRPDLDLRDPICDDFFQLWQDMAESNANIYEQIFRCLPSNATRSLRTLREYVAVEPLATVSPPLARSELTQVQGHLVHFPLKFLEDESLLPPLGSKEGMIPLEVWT

C[C@@H](CN1CCC(n2c(=O)[nH]c3ccccc32)CC1)NC(=O)c1ccc(F)c(F)c1
IC50 (Phospholipase D2): 1.6 µM (active) | IC50 (Phospholipase D1): 0.02 µM (active)

CC(=O)Nc1ccc(/C=C/c2noc(-c3ccccc3O)n2)cc1
IC50 (Caspase-3 [1]): > 99 µM (inactive) | IC50 [2]: > 99 µM (inactive) | IC50 (Caspase-3 [3]): 35 µM (active) | IC50 [4]: 7.2 µM (active) | IC50 [5]: > 99 µM (inactive) | IC50 [6]: 2.31 µM (active) | IC50 [7]: > 99 µM (inactive) | IC50 [8]: 1.86 µM (active)

O=C(c1ccc(Cl)c(S(=O)(=O)Nc2ccccc2C(=O)N2CCc3ccccc3C2)c1)N1CCc2ccccc2C1
IC50 (Cysteine protease ATG4B): 15.6 µM (active) | IC50 (Phospholipase A2): 10.7 µM (active)

C=C1C(=O)c2sccc2C(c2ccc(OC)c(OC)c2)C1COC(C)=O (configuration not stated)
IC50 (Beta Lactamase): 21.4 µM (inactive) | AC50 [9]: 0.662 µM (active) | AC50 [10]: 3.62 µM (active) | IC50 (CHO): 1.69 µM (active) | AC50 [11]: 6.99 µM (active)

COc1ccc(-n2c(=O)c3c4c(sc3n3c(S)nnc23)CCCC4)cc1
EC50 [12]: 1.17 µM (active) | EC50 [13]: > 180 µM (inactive) | EC50 [14]: 4.45 µM (active) | IC50 [15]: 35.7 µM (active) | EC50 [16]: 34.1 µM (inconclusive)

O=C(NC(=O)c1ccc(F)cc1)Nc1nc(-c2cccs2)cc(C(F)(F)F)n1
EC50 [17]: > 99 µM (inactive) | EC50 [18]: > 99 µM (inactive) | EC50 [19]: 20.3 µM (inactive) | EC50 [20]: > 99 µM (inactive) | CC50 (MEF): > 99 µM (inactive)
